Publication PMC12305494, “Discovery of PXR Antagonist MI891 and PXR Degrader MI1013 and Their Roles in Hepatic Gene Regulation” (Journal of Medicinal Chemistry, 2025)

Assays:
CAR3 variant = target: T1, CAR3 variant (Homo sapiens, UniProt Q14994, DEL233-236); test: CAR3 variant luciferase reporter assay; type: cell-based; details: at concentrations up to 10 μM
T1 construct: expressed in transfected cells
Method: (§1) Rhesus monkey, mouse, and rat PXR expression vectors (100 ng/well each) were also obtained from GenScript. […] Carlberg (University of Kuopio, Kuopio, Finland).
(§2) The cells were cultured in DMEM medium (Merck) supplemented with 10% fetal bovine serum.

PXR-eGFP = target: T2, PXR-eGFP (Homo sapiens, UniProt O75469); test: Microscale thermophoresis (MST); type: binding; details: COS-1 cell lysate expressing PXR-eGFP
T2 construct: expressed in transfected cells; host or cells: COS-1 (lysate used)
Method: Microscale Thermophoresis (MST) experiments were conducted using the Monolith NT.115 (201810-BR-N006) (Blue/Red) instrument from NanoTemper Technologies GmbH, Germany. Cell lysates from COS-1 cells expressing PXR-eGFP served as the source of fluorescently labeled PXR, allowing the study of proteins in near-native conditions. COS-1 cells were transfected with 1000 ng of GFP-fused PXR (PXR-eGFP) using Lipofectamine 3000 and lysed 48 h post-transfection with RIPA buffer. To assess MI891 binding to PXR, cell lysates were diluted 2x with MST buffer (10 mM Na-phosphate buffer, pH 7.4, 1 mM MgCl2, 3 mM KCl, 150 mM NaCl, 0.05% Tween-20) to achieve optimal fluorescence levels. A titration series of MI891 (0–30 μM) was incubated with the diluted cell lysates. Measurements were taken in premium-coated capillaries (NanoTemper Technologies GmbH, MO-K025) using an LED source (Blue LED: Ex: 470(±10)/Em: 520(±10) nm) with an excitation wavelength of 470 nm and a 50% maximum stimulation time (MST). The excitation power was […]. Binding affinity was evaluated using the Hill model, with each data point representing mean fraction bound values from three independent experiments. The bound fraction of PXR-eGFP was determined, and fitting was performed using the Hill model method in MO Affinity Analysis v2.3 software (NanoTemper Technologies). […]

[1] = Microsomal stability, human microsomes; type: in vitro ADME; details: liver microsomes; 0.5 mg/mL human microsomes, 5 μM, up to 45 min; read-out: Microsomal stability, t1/2 (min), human
Method: The protocols and reagents for the plasma protein binding assay and metabolic stability testing in human and mouse liver microsomes are detailed in our previous report. […] The stability of compounds was tested in human and mouse microsomes (ThermoFisher Scientific). Compounds were tested in triplicate with or without NADPH wells as a negative control for cytochrome P450 metabolism. […] Each assay included a substrate with known activity as a positive control. Time points were analyzed by LC/MS/MS. The peak area for the parent compound is compared to the time zero sample in order to assess the amount of remaining compound.

PXR = target: T3, PXR (Homo sapiens, UniProt O75469); test: PXR-responsive CYP3A4 promoter luciferase reporter assay in HepG2, inverse agonist mode (basal activity); type: cell-based; set-up: expressed in transfected cells; host or cells: HepG2; details: for PXR inverse agonism: decrease of basal activity in %: tested at 10 μM, DMSO (0.1%) = 100% basal activity
T3 sequence (O75469 1-434): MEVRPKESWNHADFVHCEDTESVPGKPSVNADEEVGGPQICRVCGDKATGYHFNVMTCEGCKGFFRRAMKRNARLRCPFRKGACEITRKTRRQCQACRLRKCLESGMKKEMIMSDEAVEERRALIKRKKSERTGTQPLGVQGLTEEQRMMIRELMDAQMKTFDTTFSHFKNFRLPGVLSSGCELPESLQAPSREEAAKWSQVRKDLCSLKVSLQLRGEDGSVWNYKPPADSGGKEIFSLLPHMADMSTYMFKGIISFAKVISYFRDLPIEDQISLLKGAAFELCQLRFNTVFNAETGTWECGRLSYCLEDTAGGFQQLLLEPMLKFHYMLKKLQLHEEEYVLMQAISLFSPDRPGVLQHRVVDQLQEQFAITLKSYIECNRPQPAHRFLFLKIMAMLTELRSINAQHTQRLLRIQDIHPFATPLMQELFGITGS
Method: as §1, §2

[2] = target: T4, farnesoid X receptor (FXR) (Homo sapiens, UniProt Q96RI1); test: FXR luciferase reporter assay, agonistic and antagonistic setups; type: cell-based; details: prototype ligand 6-OCA
T4 construct: the full-length expression vector was paired with pFXRE-luc luciferase construct; expressed in transfected cells
T4 sequence (Q96RI1 whole entry): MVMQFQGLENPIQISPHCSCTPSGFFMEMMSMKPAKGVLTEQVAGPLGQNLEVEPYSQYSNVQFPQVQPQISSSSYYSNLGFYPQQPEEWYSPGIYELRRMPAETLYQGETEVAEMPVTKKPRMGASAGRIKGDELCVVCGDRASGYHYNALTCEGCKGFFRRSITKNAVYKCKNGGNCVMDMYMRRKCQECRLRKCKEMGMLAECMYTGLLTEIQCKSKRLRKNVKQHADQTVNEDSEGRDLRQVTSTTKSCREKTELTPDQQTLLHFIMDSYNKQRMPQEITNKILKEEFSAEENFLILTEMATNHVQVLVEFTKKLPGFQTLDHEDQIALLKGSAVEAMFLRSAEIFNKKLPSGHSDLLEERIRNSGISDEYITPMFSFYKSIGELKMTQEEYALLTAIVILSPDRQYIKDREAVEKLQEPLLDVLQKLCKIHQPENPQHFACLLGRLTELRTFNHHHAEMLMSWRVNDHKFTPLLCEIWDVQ
Method: (§3) For the farnesoid X receptor (FXR) luciferase gene reporter assay, the full-length expression vector was paired with pFXRE-luc luciferase construct. The p1A1-luc construct was used in the aryl hydrocarbon receptor (AhR) assays with pRL-TK for normalization. Gal4-LXR-α/β, and Gal4-PPAR-γ constructs were used with the pGAL4 UAS-luc construct. For the VDR assay, expression vector pSG5-hVDR together with pVDRE-luc constructs was used. Firefly and Renilla luciferase activities were analyzed using a Dual reporter assay (Promega). For the nuclear receptor assays, prototype ligands were used at the following concentrations: Calcitriol for VDR (100 nM), GW3965 for LXRα and LXRβ (10 μM), 6-OCA for FXR (1 μM), fenofibrate for PPARα (10 μM), estradiol for ERα and β (10 μM), rosiglitazone for PPARγ (10 μM), 3-MC for AhR (5 μM), and TCPOBOP for mCAR (10 μM). Detailed descriptions and protocols are detailed in our recent publication. ,

vitamin D receptor (VDR) = target: T5, vitamin D receptor (VDR) (Homo sapiens, UniProt P11473); test: VDR luciferase reporter assay, agonistic and antagonistic setups; type: cell-based; details: prototype ligand calcitriol
T5 construct: expressed in transfected cells
T5 sequence (P11473 whole entry): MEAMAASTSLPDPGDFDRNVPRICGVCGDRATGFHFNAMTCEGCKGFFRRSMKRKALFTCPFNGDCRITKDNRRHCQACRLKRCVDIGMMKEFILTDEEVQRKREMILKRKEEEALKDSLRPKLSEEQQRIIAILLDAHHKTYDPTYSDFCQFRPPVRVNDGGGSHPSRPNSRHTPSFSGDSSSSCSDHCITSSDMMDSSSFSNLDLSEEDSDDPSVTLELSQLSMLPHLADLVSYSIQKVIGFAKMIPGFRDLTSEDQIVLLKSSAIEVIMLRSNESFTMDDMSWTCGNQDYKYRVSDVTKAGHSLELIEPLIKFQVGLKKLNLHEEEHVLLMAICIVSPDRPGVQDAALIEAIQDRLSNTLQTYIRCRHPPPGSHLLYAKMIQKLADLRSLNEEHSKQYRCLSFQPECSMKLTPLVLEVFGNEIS
Method: as §3

eGFP-tagged PXR = target: T6, eGFP-tagged PXR (Homo sapiens, UniProt O75469+Q96SW2); test: Fluorescence (eGFP) intensity assay in COS-1 cells; type: cell-based; details: 24 h
T6 construct: host or cells: COS-1
T6 sequence (Q96SW2 whole entry, one chain of several): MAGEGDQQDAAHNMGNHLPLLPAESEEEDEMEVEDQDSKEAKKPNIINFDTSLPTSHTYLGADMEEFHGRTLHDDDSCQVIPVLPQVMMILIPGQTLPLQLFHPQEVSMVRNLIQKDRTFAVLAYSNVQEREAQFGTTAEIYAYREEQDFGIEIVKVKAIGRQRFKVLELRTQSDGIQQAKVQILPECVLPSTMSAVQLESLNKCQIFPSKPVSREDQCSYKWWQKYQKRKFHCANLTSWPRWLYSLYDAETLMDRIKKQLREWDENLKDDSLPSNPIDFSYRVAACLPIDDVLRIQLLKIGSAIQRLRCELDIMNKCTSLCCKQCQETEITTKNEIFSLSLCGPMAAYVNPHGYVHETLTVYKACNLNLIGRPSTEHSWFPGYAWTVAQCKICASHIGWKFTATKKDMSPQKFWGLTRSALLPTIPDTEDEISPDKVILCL
Method: COS-1 cells were transfected with 150 ng of PXR-eGFP (NR1I2_pcDNA3.1(+)-N-eGFP, GenScript Biotech) and 150 ng of CRBN (GenScript - CRBN_OHu21180D_pcDNA3.1+/C-(K)-DYK) in a 48-well plate using Lipofectamine 3000, following the manufacturer’s protocol. After 24 h, the transfected cells were treated with varying concentrations of the MI1013 compound and incubated for another 24 h. The eGFP fluorescence was then checked and imaged using the Invitrogen EVOS imaging system. Fluorescence intensity was measured using the Spark Multimode Microplate Reader (V2.2) in Fluorescence Intensity Scan Top Reading mode. The excitation wavelength was set between 440 and 500 nm, and the emission wavelength was set at 545 nm (Monochromator), with a gain of 100 and an integration time of 40 μs. Graphs were generated using GraphPad Prism.

T1 sequence (Q14994 with tags, fused parts or gaps isoform Q14994-8 DEL233-236): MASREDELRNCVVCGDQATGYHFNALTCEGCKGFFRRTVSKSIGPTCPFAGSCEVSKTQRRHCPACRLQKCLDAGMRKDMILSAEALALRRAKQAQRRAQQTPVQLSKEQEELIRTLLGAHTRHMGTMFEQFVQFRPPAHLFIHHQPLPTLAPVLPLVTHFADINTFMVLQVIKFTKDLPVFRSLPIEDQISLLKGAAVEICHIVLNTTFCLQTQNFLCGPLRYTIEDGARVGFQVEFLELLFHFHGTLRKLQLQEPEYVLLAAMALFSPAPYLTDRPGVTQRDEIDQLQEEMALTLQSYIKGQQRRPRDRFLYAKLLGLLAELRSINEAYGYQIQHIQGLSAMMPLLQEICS
T1 sequence (P19793 whole entry partner): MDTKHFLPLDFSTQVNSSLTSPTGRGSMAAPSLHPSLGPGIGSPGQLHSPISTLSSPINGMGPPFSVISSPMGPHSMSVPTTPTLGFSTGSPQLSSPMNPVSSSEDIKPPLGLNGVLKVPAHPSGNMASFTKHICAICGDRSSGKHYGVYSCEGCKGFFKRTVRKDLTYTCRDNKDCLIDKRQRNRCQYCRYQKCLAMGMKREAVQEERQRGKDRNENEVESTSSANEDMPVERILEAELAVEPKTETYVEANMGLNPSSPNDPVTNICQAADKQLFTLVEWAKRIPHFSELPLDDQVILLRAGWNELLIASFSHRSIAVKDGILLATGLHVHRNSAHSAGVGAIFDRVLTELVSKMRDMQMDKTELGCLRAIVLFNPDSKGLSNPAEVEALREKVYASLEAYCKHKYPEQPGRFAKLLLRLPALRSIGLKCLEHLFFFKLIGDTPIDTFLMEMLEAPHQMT

Row | activation of CAR3 variant (CAR3 variant) | Kd (PXR-eGFP) [µM] | half-life at 5 μM [1] [min] | inhibition at 10 µM (PXR; HepG2, at 10 μM, read-out: maximal inhibition (inverse agonism)) [%] | IC50 (PXR; compound alone, HepG2, read-out: IC50, inverse agonistic activity) [µM] | PXR inverse agonism: decrease of basal activity in % (PXR) | PXR inverse agonism: decrease of basal activity in % (PXR; listed as 11 (MI891)) | Molecule | agonistic or antagonistic activity on FXR [2] | agonistic or antagonistic activity on VDR (vitamin D receptor (VDR)) | degradation of eGFP-tagged PXR (loss of fluorescence) (eGFP-tagged PXR)
1 | no significant activation | 1.7 | > 45 | 68.8 ± 5.5 | 6.1 | (-68.84±5.53) % | –68.84 ± 5.53% | NC(=O)c1cc(Cn2cc(-c3c(-c4ccc(Cl)cc4)nc4c(F)cc(F)cn34)nn2)ccc1Cl [Compound 11, 2-Chloro-5-((4-(2-(4-chlorophenyl)-6,8-difluoroimidazo[1,2-a]pyridin-3-yl)-1H-1,2,3-triazol-1-yl)methyl)-benzamide] | no significant agonistic or antagonistic activities | no significant agonistic or antagonistic activities | –
2 | – | – | – | – | – | – | – | N-(4-((1-(2,5-dimethoxyphenyl)-5-methyl-1H-1,2,3-triazol-4-yl)sulfonyl)phenyl)-3-(2-(2-(2-(4-(((2-(2,6-dioxopiperidin-3-yl)-1,3-dioxoisoindolin-4-yl)amino)methyl)-1H-1,2,3-triazol-1-yl)ethoxy)ethoxy)ethoxy)propenamide [Compound 36] | – | – | dose-dependent degradation of eGFP-tagged PXR
